Where two headings read alike, the source gives them in different places.
Molecular target: T1, soybean lipoxidase type V (Glycine max, UniProt P08170)
T1 sequence (P08170 1-839): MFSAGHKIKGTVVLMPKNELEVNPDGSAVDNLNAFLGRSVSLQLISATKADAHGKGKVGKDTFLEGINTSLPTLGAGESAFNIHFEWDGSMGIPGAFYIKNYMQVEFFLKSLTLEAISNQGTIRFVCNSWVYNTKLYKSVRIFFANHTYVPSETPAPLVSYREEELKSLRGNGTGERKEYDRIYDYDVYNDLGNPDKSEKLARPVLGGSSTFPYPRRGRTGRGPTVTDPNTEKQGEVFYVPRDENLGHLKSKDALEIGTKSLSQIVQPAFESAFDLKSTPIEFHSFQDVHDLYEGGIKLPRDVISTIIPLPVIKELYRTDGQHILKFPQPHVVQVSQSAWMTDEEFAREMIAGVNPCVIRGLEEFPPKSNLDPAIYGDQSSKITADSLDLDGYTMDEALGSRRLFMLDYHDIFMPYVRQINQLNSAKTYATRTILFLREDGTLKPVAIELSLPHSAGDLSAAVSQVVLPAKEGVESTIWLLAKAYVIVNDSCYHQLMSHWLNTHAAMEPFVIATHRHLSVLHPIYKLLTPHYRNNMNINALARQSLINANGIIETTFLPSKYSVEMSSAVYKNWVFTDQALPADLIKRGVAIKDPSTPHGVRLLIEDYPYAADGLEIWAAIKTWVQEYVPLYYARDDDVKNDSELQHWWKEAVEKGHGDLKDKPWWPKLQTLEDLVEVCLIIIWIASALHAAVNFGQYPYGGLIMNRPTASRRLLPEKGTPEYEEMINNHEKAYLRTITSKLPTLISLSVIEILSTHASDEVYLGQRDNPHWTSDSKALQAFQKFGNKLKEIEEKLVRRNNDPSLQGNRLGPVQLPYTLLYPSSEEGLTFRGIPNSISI
Conditions: for A234 nm/min.: 25° C., 0.1M borate pH 9

Row | Structure (SMILES) | A234 nm/min. (NDGA 1.3 × 10^-4 M) [min⁻¹] | A234 nm/min. (NDGA 2.6 × 10^-4 M) [min⁻¹] | A234 nm/min. (NDGA 3.2 × 10^-4 M) [min⁻¹] | A234 nm/min. (NDGA 3.9 × 10^-4 M) [min⁻¹] | inhibition at 130 µM (pH 9) [%] | inhibition at 260 µM (pH 9) [%] | inhibition at 320 µM (pH 9) [%] | A234 nm/min. (alpha-Naphthol 2.5 × 10^-5 M) | A234 nm/min. (alpha-Naphthol 6.2 × 10^-5 M) | A234 nm/min. (alpha-Naphthol 7.5 × 10^-5 M) | A234 nm/min. (alpha-Naphthol 8.8 × 10^-5 M) | A234 nm/min. (alpha-Naphthol 12.5 × 10^-5 M) | inhibition at 25 µM (pH 9) [%] | inhibition at 62 µM (pH 9) [%] | inhibition at 75 µM (pH 9) [%] | inhibition at 88 µM (pH 9) [%] | inhibition at 125 µM (pH 9) [%]
1 | CC(Cc1ccc(O)c(O)c1)C(C)Cc1ccc(O)c(O)c1 (centres unmarked) [NDGA, nordihydroguaiaretic acid] | 0.217 | 0.186 | 0.100 | 0.035 | 1 | 14 | 54 | – | – | – | – | – | – | – | – | – | –
2 | Oc1cccc2ccccc12 [alpha-Naphthol, alpha-naphthol] | – | – | – | – | – | – | – | .230 min⁻¹ | .141 min⁻¹ | .074 min⁻¹ | .069 min⁻¹ | .021 min⁻¹ | 12 | 46 | 72 | 74 | 92

Reference: patent US4708964A, “Lipoxygenase inhibitors” (Chemex Pharmaceuticals, priority 1984, dated 1987)
